Where “and” joins values, the source holds several entries; their conditions need not be identical. Equal entries are not always repeated. *1 amine or outer side, *2 acyl side, *3 side chain or, on linkers, in order; H or OH if unused. Bridges are numbered along the chain shown (N, C = ends). Bi = bismuth bicyclization of the Cys thiols (peptides reacted with BiBr3), [Bi]([*:1])([*:2])[*:3]; Lys(NF) = lysine with naphthofluorescein (NF) attached to its side chain; Lys(dye) = not defined here; AEEA = NCCOCCOCC(=O)O
Each molecule was assayed on HeLa cells (assay: Flow cytometry of HeLa cells, cytosolic entry of NF-labeled peptides). Conditions: 2 μM NF-labeled peptide, 2 h, 37° C., 1% FBS, relative to CPP12 (100%).
Assay type: cell-based
Description: (§1) Flow cytometry. HeLa cells were cultured in 12-well plates (1.5×10^5 cells/well) overnight. The following day, cells were incubated with 5 μM fluorescently labeled peptide for 2 h in DMEM supplemented with 1% FBS and 1% antibiotic solution. DMSO was used as a negative control. After incubation, cells were detached from plate with 350 μL of 0.25% Trypsin-EDTA solution, diluted with Dulbecco's phosphate buffered saline (DPBS), and pelleted at 300 g for 5 min. Cells were washed twice with DPBS, resuspended in DPBS, and analyzed on a BD FACS LSR II flow cytometer.
(§2) To evaluate their cell entry efficiencies, the BCPs and pBCPs were labeled with tetramethylrhodamine (TMR) or naphthofluorescein (NF) on a C-terminal lysine residue (FIGS. 2A, 2B, and 4). […] The labeled peptides were purified again by reversed-phase HPLC and their authenticity was confirmed by high-resolution mass spectrometry.
(§3) HeLa cells were treated with 5 μM dye-labeled BCPs (or pBCPs), CPP12, Tat, or DMSO (equal volume) for 2 h at 37° C., washed to remove any peptides in the medium, and analyzed by flow cytometry. The mean fluorescence intensity (MFI) value of TMR (which is pH insensitive) reflects the total amount of CPP inside the HeLa cells (total cellular uptake). On the other hand, NF is a pH sensitive dye, having an apparent pKa of 7.8. NF is unprotonated and fluorescent inside the neutral environment of the cytosol (and nucleus) but is nearly completely protonated and nonfluorescent in the acidic environments of endosomes and lysosomes. Thus, the MFI value of NF provides a convenient estimate of the peptides that have reached the cytosol.
Note that cell entry assays were performed by treating HeLa cell with 2 μM naphthofluorescein (NF)-labeled peptide for 2 h at 37° C. Under this condition, the BCPs enter the cell almost exclusively by endocytosis and endosomal escape. A small fraction of the CPP12^NF-treated cells (˜10%) underwent direct translocation of CPP12^NF; this fraction of highly fluorescent cells was not included in the data analysis. The cellular entry of pBCP427-4 was confirmed by live-cell confocal microscopy (FIG. 6).
BCP16a, BCP16b, and pBCP427-4a were labeled with NF and their cytosolic entry efficiencies were assessed by flow cytometry analysis of HeLa cells after treatment with 2 μM peptide at 37° C. for 2 h. […] CPP12 was previously shown to be highly sensitive to serum proteins (Buyanova, M., et al., (2022). Discovery of a Cyclic Cell-Penetrating Peptide with Improved Endosomal Escape and Cytosolic Delivery Efficiency. Molecular pharmaceuties, 19 (5). 1378-1388).

Row | Molecule | MFI^NF (Cytosolic Entry)
1 | CC(=O)N[C@@H](C)C(=O)N[C@@H](Cc1c[nH]c2ccccc12)C(=O)N[C@@H](CO)C(=O)N[C@@H](CC(N)=O)C(=O)N[C@@H](Cc1c[nH]c2ccccc12)C(=O)N[C@@H](Cc1ccccc1)C(=O)N[C@@H](C)C(=O)N[C@@H](Cc1ccccc1)C(=O)N[C@@H](CCC(N)=O)C(=O)N[C@@H](CCCNC(=N)N)C(=O)N[C@@H](CCCNC(=N)N)C(=O)N[C@@H](C)C(=O)NCCOCCOCC(=O)N[C@@H](CCCCNC(=O)c1ccc2c(c1)C(=O)OC21c2ccc3cc(O)ccc3c2Oc2c1ccc1cc(O)ccc21)C(N)=O [pBCP427-4Ala] | 18% and 18 ± 2%
2 | Ac-CRRRφCF(dNle)QWC [BCP9A5-2] | 43 ± 2%
3 | Ac-CRRRφRFCQWC [BCP9A5-1] | 30 ± 1%
4 | Ac-CWSNWCFQRRC (Ac-CWSNWCFQRRC-{AEEA-Lys(NF)-NH2}; linker 1-6-11 via Bi (inferred)) [pBCP427-5] | 76 ± 1%
5 | Ac-CWSNWFCFQRRCR (Ac-CWSNWFCFQRRCR-{AEEA-Lys(NF)-NH2}; linker 1-7-12 via Bi (inferred)) [pBCP427-3] | 101 ± 3%
6 | Ac-CWSNWFCFQRRCRR (Ac-CWSNWFCFQRRCRR-{AEEA-Lys(NF)-NH2}; linker 1-7-12 via Bi (inferred)) [pBCP427-2] | 45 ± 1%
7 | Ac-CWSNWFCFQRRCRRF (Ac-CWSNWFCFQRRCRRF-{AEEA-Lys(NF)-NH2}; linker 1-7-12 via Bi (inferred)) [pBCP427-1] | 94 ± 22%
8 | Ac-CWSNWFCQRRC (Ac-CWSNWFCQRRC-{AEEA-Lys(NF)-NH2}; linker 1-7-11 via Bi (inferred)) [pBCP427-6] | 65 ± 1%
9 | Ac-CWSQWFCFQRRC (Ac-CWSQWFCFQRRC-{AEEA-Lys(NF)-NH2}; linker 1-7-12 via Bi (inferred)) [pBCP427-7] | 69 ± 3%
10 | Ac-CrRrRCΦfC [BCP4] | 51 ± 16%
11 | CWSNWFCFQRRCRRFA (Ac-CWSNWFCFQRRCRRFA-{AEEA-Lys(dye)-NH2}; linker 1-7-12 via Bi (inferred); reading uncertain) [pBCP427] | 131 ± 1%
12 | HS-CH2-CO-rRrRC(Bta)φC [BCP15] | 108 ± 4%
13 | HS-CH2-CO-rRrRCΦφC [BCP14] | 86 ± 2%
14 | HS-CH2-CO-rRrRCφ(Bta)φC [BCP16b] | 98% and 98 ± 1%
15 | HS-CH2-CO-rRrRcΦ(Bta)φC [BCP16a] | 156% and 156 ± 4%
16 | HS-CH2-CO-φSNφFCfQrRC [BCP427-2] | 118 ± 4%
17 | HS-CH2-CO-φSNφFCfQrRCRrFa [BCP427-1] | 84 ± 2%

Same assay, conditions: 2 μM NF-labeled peptide, 2 h, 37° C., 10% FBS, relative to CPP12

Row | Molecule | cytosolic entry efficiency in the presence of 10% FBS
18 | HS-CH2-CO-rRrRCφ(Bta)φC [BCP16b] | 169%
19 | HS-CH2-CO-rRrRcΦ(Bta)φC [BCP16a] | 821%

Same assay, conditions: 5 μM

Row | Molecule | cytosolic entry, fold less active than CPP12 | cytosolic entry, fold more active than Tat
20 | CWYWRRCRAC (Ac-CWYWRRCRAC-{AEEA-Lys(dye)-NH2}; linker 1-7-10 via Bi (inferred); reading uncertain) [pBCP10] | 6 fold | 5 fold

Same assay, conditions: 5 μM NF-labeled peptide, 2 h, 37° C., relative to CPP12 (100%)

Row | Molecule | MFI^NF (Cytosolic Entry)
21 | AWYRRARAA [pBCP4a, linear variant of pBCP4, three cysteine residues replaced with Ala] | 5.4%
22 | Ac-CFΦRRCrrC [BCP8] | 38 ± 1%
23 | Ac-CFΦRRRRCAAAC [BCP11] | 13%
24 | Ac-CFΦRrRCAAC [BCP13] | 30 ± 3%
25 | Ac-CfΦRrCRrC [BCP10] | 56 ± 32%
26 | Ac-CrRrRCΦfC [BCP4] | 51 ± 16%
27 | Ac-CrRrRCΦfFC [BCP5] | 45 ± 1%
28 | Ac-CΣΦRRCrrC [BCP9] | 43%
29 | CFFFRRRCRAC (Ac-CFFFRRRCRAC-{AEEA-Lys(dye)-NH2}; linker 1-8-11 via Bi (inferred); reading uncertain) [pBCP17] | 15 ± 1%
30 | CFFRRRCRAC (Ac-CFFRRRCRAC-{AEEA-Lys(dye)-NH2}; linker 1-7-10 via Bi (inferred); reading uncertain) [pBCP16] | 15 ± 1%
31 | CRRRRCWYWC (Ac-CRRRRCWYWC-{AEEA-Lys(dye)-NH2}; linker 1-6-10 via Bi (inferred); reading uncertain) [pBCP1] | 12 ± 4%
32 | CWSNWFCFQRRCRRFA (Ac-CWSNWFCFQRRCRRFA-{AEEA-Lys(dye)-NH2}; linker 1-7-12 via Bi (inferred); reading uncertain) [pBCP427] | 41% and 41 ± 5%
33 | CWYCRRRC (Ac-CWYCRRRC-{AEEA-Lys(dye)-NH2}; linker 1-4-8 via Bi (inferred); reading uncertain) [pBCP11] | 14 ± 1%
34 | CWYRCRRC (Ac-CWYRCRRC-{AEEA-Lys(dye)-NH2}; linker 1-5-8 via Bi (inferred); reading uncertain) [pBCP13] | 11 ± 1%
35 | CWYRRCRAC (Ac-CWYRRCRAC-{AEEA-Lys(dye)-NH2}; linker 1-6-9 via Bi (inferred); reading uncertain) [pBCP4] | 10 ± 4%
36 | CWYRRRCAC (Ac-CWYRRRCAC-{AEEA-Lys(dye)-NH2}; linker 1-7-9 via Bi (inferred); reading uncertain) [pBCP12] | 12 ± 1%
37 | CWYRRRCRAC (Ac-CWYRRRCRAC-{AEEA-Lys(dye)-NH2}; linker 1-7-10 via Bi (inferred); reading uncertain) [pBCP9] | 12 ± 4%
38 | CWYWRRCRAC (Ac-CWYWRRCRAC-{AEEA-Lys(dye)-NH2}; linker 1-7-10 via Bi (inferred); reading uncertain) [pBCP10] | 17% and 17 ± 2%
39 | CYYRRCRAC (Ac-CYYRRCRAC-{AEEA-Lys(dye)-NH2}; linker 1-6-9 via Bi (inferred); reading uncertain) [pBCP15] | 16 ± 3%

Same assay, conditions: 5 μM, linear Ala variant vs cyclized peptide

Row | Molecule | cytosolic entry, fold less active than pBCP4
40 | AWYRRARAA [pBCP4a, linear variant of pBCP4, three cysteine residues replaced with Ala] | ~2 fold

These molecules were tested on HeLa cells (assay: Flow cytometry of HeLa cells, total cellular uptake of TMR-labeled peptides). Conditions: 5 μM TMR-labeled peptide, 2 h, 37° C., relative to CPP12 (100%).
Assay type: cell-based
Description: as §1, §2, §3

Row | Molecule | MFI^TMR (Total Cellular Uptake)
41 | Ac-CFΦCRRRRC [BCP1] | 12 ± 2%
42 | Ac-CFΦRRCRRC [BCP3] | 13 ± 2%
43 | Ac-CRRRRCΦFC [BCP2] | 15 ± 4%
44 | CARCRRRWYWC (Ac-CARCRRRWYWC-{AEEA-Lys(dye)-NH2}; linker 1-4-11 via Bi (inferred); reading uncertain) [pBCP3] | 3%
45 | CARCRRYWC (Ac-CARCRRYWC-{AEEA-Lys(dye)-NH2}; linker 1-4-9 via Bi (inferred); reading uncertain) [pBCP5] | 9.2%
46 | CFWRCRRC (Ac-CFWRCRRC-{AEEA-Lys(dye)-NH2}; linker 1-5-8 via Bi (inferred); reading uncertain) [pBCP6] | 9.0 ± 0.7%
47 | CRRCRWFC (Ac-CRRCRWFC-{AEEA-Lys(dye)-NH2}; linker 1-4-8 via Bi (inferred); reading uncertain) [pBCP7] | 10 ± 0.1%
48 | CRRRRCWYWC (Ac-CRRRRCWYWC-{AEEA-Lys(dye)-NH2}; linker 1-6-10 via Bi (inferred); reading uncertain) [pBCP1] | 9.3 ± 1.9%
49 | CRRRWYWCAAC (Ac-CRRRWYWCAAC-{AEEA-Lys(dye)-NH2}; linker 1-8-11 via Bi (inferred); reading uncertain) [pBCP8] | 8.4%
50 | CWYRRCRAC (Ac-CWYRRCRAC-{AEEA-Lys(dye)-NH2}; linker 1-6-9 via Bi (inferred); reading uncertain) [pBCP4] | 11 ± 1%

Source: patent US20260125426A1, “CYCLIC CELL-PENETRATING PEPTIDES AND USES THEREOF” (Ohio State Innovation Foundation, priority 2022, published 2026)
